{
  "source": "patent US20100120700A1",
  "about": "“METHODS AND COMPOSITIONS FOR TREATING CERVICAL CANCER” (priority 2000, published 2010)",
  "experiment_in_all_cases": "G assay PDZ-PL binding",
  "details_in_all_cases": "peptide 10 uM, protein 5",
  "key": {"[1]": {"target": "T1, TIAM 2 domain 1 (Homo sapiens, UniProt Q8IVF5)", "T1 construct": "made in house; host or cells: E. coli (DH5alpha, BL21 or JM109)", "T1 sequence (Q8IVF5 885-981)": "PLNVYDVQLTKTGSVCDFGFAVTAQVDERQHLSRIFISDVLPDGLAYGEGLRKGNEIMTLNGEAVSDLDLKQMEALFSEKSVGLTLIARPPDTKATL", "summary_of_the_method": "(§1)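 Plate ELISA: anti-GST antibody coat, BSA block, then GST/PDZ fusion (GST alone as negative control). Biotinylated PL peptide 20 uM (10 uM in G′ variant) added, 10 min 4 °C plus 20 min 25 °C; streptavidin-HRP, TMB, absorbance 450 nm.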"}, "[2]": {"target": "T2, ZO-1 domain 2 (Homo sapiens, UniProt Q07157, DEL264-264)", "T2 construct": "made in house; host or cells: E. coli (DH5alpha, BL21 or JM109)", "T2 sequence (Q07157 with tags, fused parts or gaps DEL264-264)": "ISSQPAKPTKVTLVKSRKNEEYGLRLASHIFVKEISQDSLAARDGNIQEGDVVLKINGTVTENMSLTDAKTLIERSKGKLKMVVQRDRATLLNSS", "summary_of_the_method": "as §1"}, "[3]": {"target": "T3, KIAA0316 domain 1 (Homo sapiens, UniProt Q14CM0)", "T3 construct": "made in house; host or cells: E. coli (DH5alpha, BL21 or JM109), vector pGEX-3X", "T3 sequence (Q14CM0 72-159)": "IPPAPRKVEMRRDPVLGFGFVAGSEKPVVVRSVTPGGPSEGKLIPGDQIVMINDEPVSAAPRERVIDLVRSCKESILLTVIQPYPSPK", "summary_of_the_method": "as §1"}, "[4]": {"target": "T4, Syntrophin gamma 2 domain 1 (Homo sapiens, UniProt Q9NY99)", "T4 construct": "made in house; host or cells: E. coli (DH5alpha, BL21 or JM109), vector pGEX-3X", "T4 sequence (Q9NY99 65-163)": "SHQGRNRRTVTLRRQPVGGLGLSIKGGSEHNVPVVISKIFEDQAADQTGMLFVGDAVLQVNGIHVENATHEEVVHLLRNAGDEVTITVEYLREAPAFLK", "summary_of_the_method": "as §1"}, "[5]": {"target": "T5, NeDLG domain 1 (Homo sapiens, UniProt Q92796, D190E)", "T5 construct": "made in house; host or cells: E. coli (DH5alpha, BL21 or JM109)", "T5 sequence (Q92796 with tags, fused parts or gaps D190E)": "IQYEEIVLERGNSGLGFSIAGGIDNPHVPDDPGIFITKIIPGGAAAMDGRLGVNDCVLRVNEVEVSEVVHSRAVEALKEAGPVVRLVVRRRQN", "summary_of_the_method": "as §1"}, "[6]": {"target": "T6, HTRA 3 domain 1 (Homo sapiens, UniProt P83110)", "T6 construct": "made in house; host or cells: E. coli (DH5alpha or BL-21)", "T6 sequence (P83110 with tags, fused parts or gaps)": "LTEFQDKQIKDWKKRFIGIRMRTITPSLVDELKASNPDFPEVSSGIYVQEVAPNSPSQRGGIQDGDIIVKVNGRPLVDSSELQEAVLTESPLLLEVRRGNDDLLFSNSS", "summary_of_the_method": "as §1"}, "[7]": {"target": "T7, MUPP1 domain 13 (Homo sapiens, UniProt O75970)", "T7 construct": "made in house; host or cells: E. coli (DH5alpha or BL-21)", "T7 sequence (O75970 1980-2070)": "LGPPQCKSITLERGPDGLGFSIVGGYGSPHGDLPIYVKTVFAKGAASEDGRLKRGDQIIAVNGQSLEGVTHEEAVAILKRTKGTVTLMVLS", "summary_of_the_method": "as §1"}, "[8]": {"target": "T8, KIAA0973 #148.4 domain 1 (Homo sapiens, UniProt Q9Y2H9)", "T8 construct": "made in house; host or cells: E. coli (DH5alpha, BL21 or JM109)", "T8 sequence (Q9Y2H9 963-1055)": "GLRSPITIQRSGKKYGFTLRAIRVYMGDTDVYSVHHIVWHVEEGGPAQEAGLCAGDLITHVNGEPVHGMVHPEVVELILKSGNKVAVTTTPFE", "summary_of_the_method": "as §1"}, "[9]": {"target": "T9, KIAA1634 domain 1 (Homo sapiens, UniProt Q5TCQ9)", "T9 construct": "made in house; host or cells: E. coli (DH5alpha, BL21 or JM109)", "T9 sequence (Q5TCQ9 401-502)": "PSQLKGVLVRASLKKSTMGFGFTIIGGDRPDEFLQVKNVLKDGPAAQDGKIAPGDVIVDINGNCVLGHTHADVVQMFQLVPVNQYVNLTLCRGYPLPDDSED", "summary_of_the_method": "as §1"}, "[10]": {"target": "T10, ELFIN 1 domain 1 (Homo sapiens, UniProt O00151, G21R)", "T10 construct": "made in house; host or cells: E. coli (DH5alpha, BL21 or JM109), vector pGEX-3X", "T10 sequence (O00151 2-93 G21R)": "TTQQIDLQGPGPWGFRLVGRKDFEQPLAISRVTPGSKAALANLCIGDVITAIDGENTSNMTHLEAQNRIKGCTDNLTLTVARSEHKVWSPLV", "summary_of_the_method": "as §1"}, "[11]": {"target": "T11, Numb BP domain 1 (Homo sapiens, UniProt Q8TBB1)", "T11 construct": "made in house; host or cells: E. coli (DH5alpha, BL21 or JM109)", "T11 sequence (Q8TBB1 with tags, fused parts or gaps)": "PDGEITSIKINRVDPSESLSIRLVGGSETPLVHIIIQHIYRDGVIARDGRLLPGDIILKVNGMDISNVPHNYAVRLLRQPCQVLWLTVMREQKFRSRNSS", "summary_of_the_method": "as §1"}, "[12]": {"target": "T12, X-11 beta domain 1 (Homo sapiens, UniProt Q99767)", "T12 construct": "made in house; host or cells: E. coli (DH5alpha, BL21 or JM109)", "T12 sequence (Q99767 with tags, fused parts or gaps)": "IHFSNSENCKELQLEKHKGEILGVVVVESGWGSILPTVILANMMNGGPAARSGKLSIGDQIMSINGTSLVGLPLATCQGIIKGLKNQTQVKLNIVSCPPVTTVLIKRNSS", "summary_of_the_method": "as §1"}, "[13]": {"target": "T13, MAGI 1 domain 4 (Homo sapiens, UniProt Q96QZ7)", "T13 construct": "made in house; host or cells: E. coli (DH5alpha, BL21 or JM109)", "T13 sequence (Q96QZ7 with tags, fused parts or gaps)": "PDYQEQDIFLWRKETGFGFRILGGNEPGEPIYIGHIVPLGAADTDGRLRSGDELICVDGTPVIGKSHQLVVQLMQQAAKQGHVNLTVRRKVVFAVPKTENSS", "summary_of_the_method": "as §1"}, "[14]": {"target": "T14, DLG2 #162.1 domain 2 (Homo sapiens, UniProt Q15700, K278N)", "T14 construct": "made in house; host or cells: E. coli (DH5alpha, BL21 or JM109), vector pGEX-3X", "T14 sequence (Q15700 whole entry, looked up, the tested form differs by isoform, tags, fused parts or gaps, stated change not applied)": "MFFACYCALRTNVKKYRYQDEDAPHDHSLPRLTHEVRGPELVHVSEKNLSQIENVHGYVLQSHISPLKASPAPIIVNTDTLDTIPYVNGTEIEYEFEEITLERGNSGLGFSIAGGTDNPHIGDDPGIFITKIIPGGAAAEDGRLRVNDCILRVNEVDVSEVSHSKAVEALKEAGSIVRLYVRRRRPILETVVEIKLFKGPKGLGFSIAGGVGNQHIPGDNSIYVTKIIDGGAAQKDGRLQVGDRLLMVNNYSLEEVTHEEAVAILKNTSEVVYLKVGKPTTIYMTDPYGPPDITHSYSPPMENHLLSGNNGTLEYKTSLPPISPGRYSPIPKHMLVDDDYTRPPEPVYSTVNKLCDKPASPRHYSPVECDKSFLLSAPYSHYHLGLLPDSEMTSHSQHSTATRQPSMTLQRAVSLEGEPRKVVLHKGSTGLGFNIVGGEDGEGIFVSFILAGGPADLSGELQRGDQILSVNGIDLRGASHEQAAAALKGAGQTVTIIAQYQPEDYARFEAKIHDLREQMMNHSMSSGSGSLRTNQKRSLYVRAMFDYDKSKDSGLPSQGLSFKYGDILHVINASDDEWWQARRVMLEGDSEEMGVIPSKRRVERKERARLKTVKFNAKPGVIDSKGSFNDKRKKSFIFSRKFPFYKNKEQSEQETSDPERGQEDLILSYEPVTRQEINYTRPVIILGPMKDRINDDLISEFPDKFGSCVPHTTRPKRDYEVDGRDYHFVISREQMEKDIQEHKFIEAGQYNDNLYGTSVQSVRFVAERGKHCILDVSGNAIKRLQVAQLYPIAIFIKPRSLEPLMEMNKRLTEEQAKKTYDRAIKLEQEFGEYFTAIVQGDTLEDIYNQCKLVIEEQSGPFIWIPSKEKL", "summary_of_the_method": "as §1"}},
  "note": "Values joined by “and” are separate entries in the source; they are usually repeats but may differ in a detail not shown here. Equal entries are not always repeated.",
  "data": [
    {"substance": "20 mer peptide corresponding to the C-terminus of HPV16 E6 (PDZ ligand), biotinylated in binding assays; ends SSRTRRETQL (SEQ ID NO: 13) [HPV E6 #16]", "values": [
      {"measurement": "Ave OD", "setting": "[1]; A450 nm", "value": 0.356},
      {"measurement": "OD S/N", "setting": "[1]; vs GST only well", "value": 2.05},
      {"measurement": "Ave OD", "setting": "[2]; A450 nm", "value": 0.518},
      {"measurement": "OD S/N", "setting": "[2]; vs GST only well", "value": 3.02},
      {"measurement": "Ave OD", "setting": "[3]; A450 nm", "value": "0.343 and 0.6125"},
      {"measurement": "OD S/N", "setting": "[3]; vs GST only well", "value": "2.34 and 2.56"},
      {"measurement": "Ave OD", "setting": "[4]; A450 nm", "value": "0.469 and 0.7725"},
      {"measurement": "OD S/N", "setting": "[4]; vs GST only well", "value": "2.76 and 3.13"},
      {"measurement": "Ave OD", "setting": "[5]; A450 nm", "value": 0.5165},
      {"measurement": "OD S/N", "setting": "[5]; vs GST only well", "value": 1.98},
      {"measurement": "Ave OD", "setting": "[6]; A450 nm", "value": 0.4135},
      {"measurement": "OD S/N", "setting": "[6]; vs GST only well", "value": 1.34},
      {"measurement": "Ave OD", "setting": "[7]; A450 nm", "value": "0.4355 and 0.4115"},
      {"measurement": "OD S/N", "setting": "[7]; vs GST only well", "value": "1.56 and 1.75"},
      {"measurement": "Ave OD", "setting": "[8]; A450 nm", "value": "1.0105 and 0.6885"},
      {"measurement": "OD S/N", "setting": "[8]; vs GST only well", "value": "6.22 and 5.12"},
      {"measurement": "Ave OD", "setting": "[9]; A450 nm", "value": "3.465 and 3.336"},
      {"measurement": "OD S/N", "setting": "[9]; vs GST only well", "value": "19.04 and 19.45"},
      {"measurement": "Ave OD", "setting": "[10]; A450 nm", "value": 0.66},
      {"measurement": "OD S/N", "setting": "[10]; vs GST only well", "value": 3.39},
      {"measurement": "Ave OD", "setting": "[11]; A450 nm", "value": 0.352},
      {"measurement": "OD S/N", "setting": "[11]; vs GST only well", "value": 3.17},
      {"measurement": "Ave OD", "setting": "[12]; A450 nm", "value": 0.352},
      {"measurement": "OD S/N", "setting": "[12]; vs GST only well", "value": 2.02},
      {"measurement": "Ave OD", "setting": "[13]; A450 nm", "value": "0.395 and 0.496"},
      {"measurement": "OD S/N", "setting": "[13]; vs GST only well", "value": "1.20 and 1.58"},
      {"measurement": "Ave OD", "setting": "[14]; A450 nm", "value": "0.908 and 0.853"},
      {"measurement": "OD S/N", "setting": "[14]; vs GST only well", "value": "3.87 and 3.05"}
    ]}
  ]
}
